Where two headings read alike, the source gives them in different places.
Columns and labels:
CYP2c13 = target: T1, CYP2c13 (Rattus norvegicus, UniProt P20814); test: RLM incubation: metabolic clearance rate of mephenytoin (CYP2c13); conditions: RLM 0.5 mg/mL, 30 min 37°C, inhibitor added, blank control 15.97 ± 0.68, n = 3
T1 sequence (P20814 1-490): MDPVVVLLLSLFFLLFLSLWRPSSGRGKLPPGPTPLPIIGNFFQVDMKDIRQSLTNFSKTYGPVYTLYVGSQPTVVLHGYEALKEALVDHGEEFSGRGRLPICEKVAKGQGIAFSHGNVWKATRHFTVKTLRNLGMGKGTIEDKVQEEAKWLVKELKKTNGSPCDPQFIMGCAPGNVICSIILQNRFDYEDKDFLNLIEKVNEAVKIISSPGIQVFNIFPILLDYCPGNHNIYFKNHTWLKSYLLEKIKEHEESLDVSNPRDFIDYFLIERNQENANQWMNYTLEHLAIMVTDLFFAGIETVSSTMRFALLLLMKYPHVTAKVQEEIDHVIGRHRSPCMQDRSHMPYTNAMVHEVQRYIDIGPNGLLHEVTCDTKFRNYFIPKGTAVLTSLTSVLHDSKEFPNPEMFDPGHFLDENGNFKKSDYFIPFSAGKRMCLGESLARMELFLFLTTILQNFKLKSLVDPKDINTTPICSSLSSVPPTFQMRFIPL
Procedure: (§1) The effect of the Zhicaowu–Hezi combination on CYP450 enzymes in RLM was evaluated by assessing the metabolic clearance rates of theophylline, metoprolol, bupropion, mephenytoin (CYP2c13), chlorzoxazone, testosterone, and diclofenac.
(§2) On day 15, the rats were humanely euthanized, and liver tissues were excised for microsomal preparation. […] Livers from each group were repeatedly washed with ice-cold phosphate buffered saline (PBS). […] Subsequently, they were blotted dry with filter paper, weighed, and homogenized by adding 4 mL of ice-cold PBS per gram of liver tissue. The mixture was homogenized in an ice bath. The liver homogenate was subjected to centrifugation at 10,000 RPM for 20 min at 4°C. The resulting supernatant was then combined with an ice-cold 88-mmol/L CaCl2 solution at a 1:1 ratio, and the mixture was homogenized in an ice bath for 5 min. The resulting solution was then centrifuged at 25,000 × g for 30 min at 4°C. The supernatant was discarded and the precipitate was repeatedly resuspended in PBS–20% glycerol buffer. The precipitate was then stored in a separate bottle at −80°C for backup. The protein concentration of the prepared RLM was determined using a bicinchoninic acid protein assay kit.
(§3) Preincubation was conducted for 5 min in a water bath at 37°C, after which NADPH (1 mmol/L) was added, and incubation continued for 30 min at 37°C. Once the incubation period elapsed, the reaction was terminated by the addition of an ice-cold IS-containing acetonitrile solution. The samples were vortexed for 2 min and centrifuged at 15,000 RPM for 10 min. The resulting supernatant was filtered through a 0.22-μm organic microporous membrane, and 20 μL of the filtered solution was injected into the HPLC assay. To prevent the organic solvents from inducing or inhibiting the enzyme, the volume fraction of organic solvents in the entire incubation system was maintained at 1%. […] The inhibitor group was added with corresponding inhibitor, while all other procedures remained identical.

CYP2d2 = target: T2, CYP2d2 (Rattus norvegicus, UniProt P10634)
T2 sequence (P10634 1-500): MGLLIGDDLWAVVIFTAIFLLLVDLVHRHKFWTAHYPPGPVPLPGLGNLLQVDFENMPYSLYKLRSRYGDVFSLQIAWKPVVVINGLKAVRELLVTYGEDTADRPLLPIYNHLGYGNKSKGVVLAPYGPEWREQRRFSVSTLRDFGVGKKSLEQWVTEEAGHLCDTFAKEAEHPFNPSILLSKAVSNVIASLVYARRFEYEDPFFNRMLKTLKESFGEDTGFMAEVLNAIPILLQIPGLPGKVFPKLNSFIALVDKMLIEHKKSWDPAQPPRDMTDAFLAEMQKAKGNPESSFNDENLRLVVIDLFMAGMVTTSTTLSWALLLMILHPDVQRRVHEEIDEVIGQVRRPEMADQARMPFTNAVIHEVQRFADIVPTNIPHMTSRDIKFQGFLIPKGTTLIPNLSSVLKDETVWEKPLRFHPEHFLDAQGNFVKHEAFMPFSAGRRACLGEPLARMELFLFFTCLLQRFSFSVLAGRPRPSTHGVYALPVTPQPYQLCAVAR
Procedure: as §1, §2, §3

CYP1a2 = target: T3, CYP1a2 (Rattus norvegicus, UniProt P04799); conditions: microsomes
T3 sequence (P04799 1-513): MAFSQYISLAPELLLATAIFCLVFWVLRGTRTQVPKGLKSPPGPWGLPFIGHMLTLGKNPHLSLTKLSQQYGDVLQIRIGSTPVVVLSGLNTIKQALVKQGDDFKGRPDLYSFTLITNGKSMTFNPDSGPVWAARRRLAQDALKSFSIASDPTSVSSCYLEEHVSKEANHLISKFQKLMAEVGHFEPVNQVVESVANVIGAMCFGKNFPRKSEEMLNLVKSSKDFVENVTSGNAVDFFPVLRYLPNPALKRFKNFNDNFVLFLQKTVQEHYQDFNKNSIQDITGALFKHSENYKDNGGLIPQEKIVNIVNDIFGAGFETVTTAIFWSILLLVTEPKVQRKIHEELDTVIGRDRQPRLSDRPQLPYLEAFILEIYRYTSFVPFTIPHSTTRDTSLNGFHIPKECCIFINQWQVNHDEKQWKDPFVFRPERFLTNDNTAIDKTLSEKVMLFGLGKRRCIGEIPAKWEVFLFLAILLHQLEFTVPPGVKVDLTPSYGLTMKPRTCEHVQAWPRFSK
Procedure: as §1, §2, §3

CYP2c11 = target: T4, CYP2c11 (Rattus norvegicus, UniProt P08683)
T4 sequence (P08683 1-500): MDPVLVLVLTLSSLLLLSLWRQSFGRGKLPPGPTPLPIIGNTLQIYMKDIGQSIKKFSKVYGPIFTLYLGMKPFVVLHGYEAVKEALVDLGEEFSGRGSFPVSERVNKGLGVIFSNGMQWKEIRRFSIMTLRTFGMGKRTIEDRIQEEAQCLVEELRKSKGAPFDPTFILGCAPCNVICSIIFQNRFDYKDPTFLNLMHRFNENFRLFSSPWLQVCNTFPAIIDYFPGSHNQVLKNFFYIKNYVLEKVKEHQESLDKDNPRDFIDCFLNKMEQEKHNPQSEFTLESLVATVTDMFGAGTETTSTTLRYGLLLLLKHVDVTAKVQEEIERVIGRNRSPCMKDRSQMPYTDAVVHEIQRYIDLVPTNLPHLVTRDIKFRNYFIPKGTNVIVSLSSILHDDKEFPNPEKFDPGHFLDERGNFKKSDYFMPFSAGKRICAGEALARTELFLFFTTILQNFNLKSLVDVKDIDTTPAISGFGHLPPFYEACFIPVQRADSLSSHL
Procedure: as §1, §2, §3

| SMILES | CYP2c13(%) metabolic clearance rate of probe drug (CYP2c13) [%] | CYP2d2 (%) metabolic clearance rate of probe drug (CYP2d2; RLM 0.5 mg/mL, 30 min 37°C, inhibitor added, probe metoprolol, blank control […] ± 2.12, n = 3) [%] | CYP1a2 (%) metabolic clearance rate of probe drug (CYP1a2) [%] | CYP2c11(%) metabolic clearance rate of probe drug (CYP2c11; RLM 0.5 mg/mL, 30 min 37°C, inhibitor added, probe diclofenac, blank control 21.12 ± 3.80, n = 3) [%] | CYP2d2 (%) metabolic clearance rate of probe drug (CYP2d2) [%] | CYP2c11(%) metabolic clearance rate of probe drug (CYP2c11) [%] |
| --- | --- | --- | --- | --- | --- | --- |
| O=c1cc(-c2ccccc2)oc2c1ccc1ccccc12 [α-naphthoflavone] | 16.65 ± 3.04 | 13.12 ± 0.82 | 28.92 ± 1.91 | 23.02 ± 0.55 | – | – |
| S=P(N1CC1)(N1CC1)N1CC1 [Thiotepa] | 14.43 ± 0.36 | – | 35.91 ± 1.40 | – | 12.67 ± 0.65 | 21.84 ± 2.64 |
